Laboratory results taken from patent publication US20110111014A1, “METHODS AND COMPOSITIONS FOR TREATMENT OF NEUROLOGICAL DISORDERS” (Parkinson's Institute, priority 2007, published 2011).
Counter-ions that a name gives are not always drawn. Each block holds one compound with its values, some of them ahead of it.

Columns and labels:
α-synuclein [1] = target: T1, α-synuclein (Homo sapiens, UniProt P37840); experiment: Disaggregation Thioflavin T assay; assay type: biochemical; conditions: polyphenol inhibitors
T1 construct: made in house; host or cells: E. coli BL21(DE3), plasmid pRK172/α-synuclein WT

α-synuclein [2] = target: T1, α-synuclein; experiment: Centrifugation to separate soluble and insoluble protein, SDS-PAGE; assay type: biochemical; conditions: for protein soluble after incubation, SDS PAGE of supernatant vs. total mixture: figure legends
α-synuclein [3] = target: T1, α-synuclein; experiment: SEC HPLC, oligomer formation; assay type: biochemical; conditions: none with control
α-synuclein [4] = target: T1, α-synuclein; experiment: Aggregation inhibition Thioflavin T assay (primary assay); assay type: biochemical; conditions: for Thioflavin T signal / fibril formation by Thioflavin T fluorescence: compared with control samples (FIGS. 1-13); for lagtime for fibrillation: NINDS Collection 2 Library
α-synuclein [5] = target: T1, α-synuclein; experiment: Electron microscopy of fibrils (secondary assay); assay type: biochemical; conditions: figure legends
α-synuclein [6] = target: T1, α-synuclein; experiment: Atomic force microscopy of fibrils; assay type: biochemical; conditions: 45 hours post treatment, compared to control
Procedure: Atomic force microscopy (AFM): AFM images were collected with a PicoScan LE system (Molecular Imaging, Phoenix, AZ) equipped with Acoustic AC mode (Tapping mode) for ex-situ experiment. Triangular cantilevers with 160 kHz resonance frequency and 2 N/m spring constant, a V-shaped cantilever NSC16/AIBS (MikroMasch), were used in tapping mode imaging. The imaging was carried out at a scan rate of 1 line/s with 512 data points per line, at a drive current of 10±4 Å. Aliquots of 10 ul of sample were placed on a freshly cleaved mica substrate. After incubation for at least 60 min, the substrate was rinsed with water several times to remove salt and loosely bound protein and dried with high-purity nitrogen. Kinetics of α-synuclein fibrillation can be visualized with the use of this technique, as exemplified in FIG. 46.

[7] = in vivo; cited from earlier work
[8] = cited from earlier work

Compound: O=c1c(O)c(-c2ccc(O)c(O)c2)oc2c(O)c(O)cc(O)c12 [3,5,7,8,3′,4′-hexahydroxyflavone]
- disaggregation of α-synuclein aggregates (α-synuclein [1]): best disaggregators

Compound: O=c1c(O)c(-c2ccc(O)c(O)c2)oc2ccccc12 [3′,4′-dihydroxyflavonol]
- disaggregation of α-synuclein aggregates (α-synuclein [1]): best disaggregators

Compound: O=c1cc(-c2cccc(O)c2O)oc2ccc(O)cc12 [6,2′,3′-trihydroxyflavone]
- disaggregation of α-synuclein aggregates (α-synuclein [1]): best disaggregators

Compound: O=c1cc(-c2cc(O)c(O)c(O)c2)oc2cc(O)ccc12 [7,3′,4′,5′-tetrahydroxyflavone]
- disaggregation of α-synuclein aggregates (α-synuclein [1]): best disaggregators

Compound: c1ccc(N=Nc2ccccc2)cc1 [azobenzene]
- lagtime for fibrillation (α-synuclein [4]): Significant increases in

Compound: C[C@@](Cc1ccc(O)c(O)c1)(NN)C(=O)O [carbidopa]
- protein soluble after incubation, SDS PAGE of supernatant vs. total mixture (α-synuclein [2]): most protein still soluble
- Thioflavin T signal / fibril formation by Thioflavin T fluorescence (α-synuclein [4]): negligible fibril formation
- fibril formation by EM (α-synuclein [5]): negligible fibril formation

Compound: Cn1nnnc1SCC1=C(C(=O)O)N2C(=O)[C@@H](NC(=O)[C@H](O)c3ccccc3)[C@H]2SC1 [cefamandole sodium]
- lagtime for fibrillation (α-synuclein [4]): Significant increases in

Compound: O=C(Cc1cccs1)N[C@@H]1C(=O)N2C(C(=O)[O-])=C(C[n+]3ccccc3)CS[C@H]12 [cephaloridine]
- lagtime for fibrillation (α-synuclein [4]): Significant increases in

Compound: N.N.[Cl][Pt][Cl] [cisplatin]
- Thioflavin T signal / fibril formation by Thioflavin T fluorescence (α-synuclein [4]): negligible fibril formation
- fibril formation by EM (α-synuclein [5]): negligible fibril formation

Compound: CC(CCc1ccc(O)cc1)NCCc1ccc(O)c(O)c1 (stereo not shown) [dobutamine]
- protein soluble after incubation, SDS PAGE of supernatant vs. total mixture (α-synuclein [2]): most protein still soluble
- Thioflavin T signal / fibril formation by Thioflavin T fluorescence (α-synuclein [4]): negligible fibril formation
- fibril formation by EM (α-synuclein [5]): negligible fibril formation

Compound: NCCc1ccc(O)c(O)c1 [dopamine]
- crossing of the blood-brain barrier [7]: does not cross

Compound: CCCCCCCC/C=C/CCCCCCCCOP(=O)([O-])OCC[N+](C)(C)C [elaidyphosphocholine (antineoplastic), elaidylphosphocholine]
- protein soluble after incubation, SDS PAGE of supernatant vs. total mixture (α-synuclein [2]): most protein still soluble
- Thioflavin T signal / fibril formation by Thioflavin T fluorescence (α-synuclein [4]): negligible fibril formation
- fibril formation by EM (α-synuclein [5]): negligible fibril formation

Compound: O=C(O[C@@H]1Cc2c(O)cc(O)cc2O[C@@H]1c1cc(O)c(O)c(O)c1)c1cc(O)c(O)c(O)c1 [epigallocatechin gallate]
- disaggregation of α-synuclein aggregates (α-synuclein [1]): best disaggregators

Compound: CC(C)NCC(O)c1ccc(O)c(O)c1 (stereo not shown) [isoproterenol]
- protein in the supernatant after centrifugation (α-synuclein [2]; FIG. 1B, control samples <15%): > 90%
- Thioflavin T signal / fibril formation by Thioflavin T fluorescence (α-synuclein [4]): very low
- fibril formation by EM (α-synuclein [5]): Few fibrils

Compound: N[C@@H](Cc1ccc(O)c(O)c1)C(=O)O [l-dopa, (−)-L-a-amino-b-(3,4-dihydroxybenzene)propanoic acid]
- crossing of the blood-brain barrier [7]: does cross
- solubility in water [8]: slightly soluble

Compound: CCCCOc1ccc(OCCCN2CCOCC2)cc1 [pramoxine hydrochloride]
- lagtime for fibrillation (α-synuclein [4]): Significant increases in

Compound: O=C1c2ccccc2C(=O)c2c(O)c(O)cc(O)c21 [purpurin]
- lagtime for fibrillation (α-synuclein [4]): Significant increases in

Compound: Oc1cccc(O)c1O [pyrogallol]
- disaggregation of α-synuclein aggregates (α-synuclein [1]): best disaggregators

Now from value to compound:

- disaggregation of α-synuclein aggregates (α-synuclein [1]): best disaggregators
Compound: O=c1cc(-c2cccc(O)c2O)oc2ccccc12 [2′,3′-dihydroxyflavone]

- disaggregation of α-synuclein aggregates (α-synuclein [1]): best disaggregators
Compound: O=c1cc(-c2ccc(O)c(O)c2)oc2ccccc12 [3′,4′-dihydroxyflavone]

- disaggregation of α-synuclein aggregates (α-synuclein [1]): best disaggregators
Compound: O=c1cc(-c2cc(O)c(O)c(O)c2)oc2cc(O)cc(O)c12 [5,7,3′,4′,5′-pentahydroxyflavone]

- disaggregation of α-synuclein aggregates (α-synuclein [1]): best disaggregators
Compound: O=c1c(-c2ccc(O)c(O)c2)coc2cc(O)ccc12 [7,3′,4′-trihydroxyisoflavone]

- protein soluble after incubation, SDS PAGE of supernatant vs. total mixture (α-synuclein [2]): most protein still soluble
- oligomer formation by SEC HPLC (α-synuclein [3]): oligomer formation
- Thioflavin T signal / fibril formation by Thioflavin T fluorescence (α-synuclein [4]): very low
- fibril formation by EM (α-synuclein [5]): negligible fibril formation
Compound: CN1CCc2cccc3c2[C@H]1Cc1ccc(O)c(O)c1-3 [apomorphine, 6αβ-Aporphine-10,11-diol hydrochloride hemihydrate]

- protein soluble after incubation, SDS PAGE of supernatant vs. total mixture (α-synuclein [2]): most protein still soluble
- fibrils with atomic force microscopy (α-synuclein [6]): very few fibrils
Compound: O=c1cc(-c2ccccc2)oc2cc(O)c(O)c(O)c12 [baicalein]

- lagtime for fibrillation (α-synuclein [4]): Significant increases in
Compound: CCCCOc1ccc(C(=O)CCN2CCCCC2)cc1 [dyclonine hydrochloride]

- disaggregation of α-synuclein aggregates (α-synuclein [1]): best disaggregators
Compound: O=c1c(O)c(-c2ccc(O)c(O)c2)oc2cc(O)ccc12 [fisetin]

- lagtime for fibrillation (α-synuclein [4]): Significant increases in
Compound: Cc1c(OCC(F)(F)F)ccnc1C[S+]([O-])c1nc2ccccc2[nH]1 (stereo not shown) [lansoprazole]

- disaggregation of α-synuclein aggregates (α-synuclein [1]): best disaggregators
Compound: O=c1cc(-c2ccc(O)c(O)c2)oc2cc(O)cc(O)c12 [luteolin]

- protein soluble after incubation, SDS PAGE of supernatant vs. total mixture (α-synuclein [2]): most protein still soluble
- Thioflavin T signal / fibril formation by Thioflavin T fluorescence (α-synuclein [4]): negligible fibril formation
- fibril formation by EM (α-synuclein [5]): negligible fibril formation
Compound: O=C1c2ccc(O)c(O)c2C(=O)c2c(O)ccc(O)c21 [quinalizarin]

- lagtime for fibrillation (α-synuclein [4]): Significant increases in
Compound: NC(=O)c1ccc[n+]([C@@H]2O[C@H](COP(=O)([O-])OP(=O)(O)OC[C@H]3O[C@@H](n4cnc5c(N)ncnc54)[C@H](OP(=O)(O)O)[C@@H]3O)[C@@H](O)[C@H]2O)c1 [sodium beta-nicotinamide adenine dinucleotide phosphate]

- protein soluble after incubation, SDS PAGE of supernatant vs. total mixture (α-synuclein [2]): most protein still soluble
- Thioflavin T signal / fibril formation by Thioflavin T fluorescence (α-synuclein [4]): negligible fibril formation
- fibril formation by EM (α-synuclein [5]): negligible fibril formation
Compound: chlorophyllide Cu complex Na salt

- protein soluble after incubation, SDS PAGE of supernatant vs. total mixture (α-synuclein [2]): most protein still soluble
- Thioflavin T signal / fibril formation by Thioflavin T fluorescence (α-synuclein [4]): negligible fibril formation
- fibril formation by EM (α-synuclein [5]): negligible fibril formation
Compound: pyrogallin
